How the values were obtained:
[1] = Stability of monatin at high temperature (80° C.) and neutral pH, LC-MS; format: physicochemical; details: pH 7, 75 ppm, after 7-35 days
Procedure: A 100 milliliter solution of 75 ppm monatin at pH 7 was used as a stock solution. The synthetic monatin sample contained approximately 96% of the 2R,4R/2S,4S enantiomeric pair and 4% of the 2R,4S/2S,4R enantiomeric pair. Samples were incubated at 80° C. and pH 7 for the duration of the experiment and samples were withdrawn at 0, 1, 2, 3, 4 hours and 1, 2, 4, 7, 14, 21 and 35 days. All experimental conditions were run in duplicate.
Separation and Quantification Using LC-MS using Reverse Phase Chromatography A response curve was established for both detected diastereomer peaks of the synthetic monatin. A range of 5-150 ppm was bracketed with the synthetic monatin standard dissolved in DI water. Separation of the two diastereomer peaks was accomplished using a 3.9×1 50 mm Novapak C18 (Waters Corporation) HPLC column. Ultraviolet-Visible (UV) and Mass Spectrometer (MS) detectors were used in series for detection and quantitation. Monatin and its lactone peak each have a UVmax at 279 nm that aided in precise detection. Quantification was done by acquiring Selected Ion Monitoring (SIM) scan of 293.3 m/z and 275.3 m/z in positive-ion electrospray mode.

[2] = Sensory stability of monatin and aspartame at pH 2.5, 3.0, 4.0 at 40° C. (sweetness vs sucrose standards, panel n=8); format: physicochemical; details: for Rate constant (k; day^−1) of sweetness loss: pseudo-first order assumed
Procedure: The sensory stability of monatin solutions prepared at pH 2.5, 3.0 and 4.0 and stored at 40° C. was monitored for 100 days. Loss of sweetness from these solutions was compared with the losses of sweetness from aspartame solutions prepared and stored under identical conditions.
The sensory stability of monatin (8% SEV, ˜55 ppm, synthetic blend containing approximately 96% of the 2R,4R/2S, 4S enantiometric pair and 4% of the 2R,4S/2S,4R enantiometric pair) in phosphate/citrate buffers having a pH of 2.5, 3.0, and 4.0 was examined after storage at 40° C. The stability of monatin was compared to that of aspartame (400 ppm) in the same buffers. Three sucrose reference solutions were prepared in the same phosphate/citrate buffers as the monatin and aspartame solutions. All prepared solutions were stored in the dark.
• pH2.5 Phosphoric acid (75% solution) 0.127% (w/v) • Tri-sodium citrate monohydrate 0.005% (w/v) • pH3.0 Phosphoric acid (75% solution) 0.092% (w/v) • Tri-sodium citrate monohydrate 0.031% (w/v) • pH4.0 Phosphoric acid (75% solution) 0.071% (w/v) • Tri-sodium citrate monohydrate 0.047% (w/v)
The sweetness of each sweetener relative to sucrose was assessed in duplicate by a small panel (n=8) of trained sensory evaluators experienced in the sweetness estimation procedure. All samples (in the same buffers) were served in duplicate at a temperature of 22° C.±1° C. Monatin (test) solutions, coded with 3 digit random number codes were presented individually to panelists, in random order. Sucrose reference standards, ranging from 4.0-10.0% (w/v) sucrose, increasing in steps of 0.5% (w/v) sucrose were also provided. Panelists were asked to estimate sweetness by comparing the sweetness of the test solution to the sucrose standards. This was carried out by taking 3 sips of the test solution, followed by a sip of water, followed by 3 sips of sucrose standard followed by a sip of water, etc. Panelists were encouraged to estimate the sweetness to one decimal place, e.g., 6.8, 8.5. A five minute rest period was imposed between evaluating the test solutions. Panelists were also asked to rinse well and eat a cracker to reduce any potential carry over effects.
If a pseudo-first order breakdown reaction is assumed, a plot of logn percentage retention versus time (logn% RTN v. t) allows estimation of the half-life (t½) and rate constant (k) of sweetness loss under any given set of conditions. In so doing, the kinetics of monatin and aspartame sweetness loss may be summarized as follows in Table 13.

[3] = Stability of monatin at pH 3 with increasing temperatures; format: physicochemical
Procedure: A sample of synthetic monatin was subjected to pH 3 at temperatures of 25° C., 50° C. and 100° C. At room temperature and pH 3, a 14% loss in monatin was observed over a period of 48 hours. This loss was attributed to lactone formation. At 50° C. and pH 3, a 23% loss in monatin was observed over a period of 48 hours. This loss was attributed to lactone formation and the buildup of an unknown compound after about 15.5 minutes. […] The major detectable component was an unknown at 15.5 minutes.

[4] = Quantitative sweetness synergy of monatin in blends with other sweeteners; format: in vivo
[5] = pH 2.5, 40° C., day 1, monatin ~55 ppm
[6] = pH 2.5, 40° C., day 2, monatin ~55 ppm
[7] = pH 2.5, 40° C., day 3, monatin ~55 ppm
[8] = pH 2.5, 40° C., day 4, monatin ~55 ppm
[9] = pH 2.5, 40° C., day 7, monatin ~55 ppm
[10] = pH 2.5, 40° C., day 8, monatin ~55 ppm
[11] = pH 2.5, 40° C., day 9, monatin ~55 ppm
[12] = pH 2.5, 40° C., day 11, monatin ~55 ppm
[13] = pH 2.5, 40° C., day 50, monatin ~55 ppm
[14] = pH 2.5, 40° C., day 100, monatin ~55 ppm
[15] = pH 3.0, 40° C., day 1, monatin ~55 ppm
[16] = pH 3.0, 40° C., day 2, monatin ~55 ppm
[17] = pH 3.0, 40° C., day 3, monatin ~55 ppm
[18] = pH 3.0, 40° C., day 4, monatin ~55 ppm
[19] = pH 3.0, 40° C., day 7, monatin ~55 ppm
[20] = pH 3.0, 40° C., day 8, monatin ~55 ppm
[21] = pH 3.0, 40° C., day 9, monatin ~55 ppm
[22] = pH 3.0, 40° C., day 11, monatin ~55 ppm
[23] = pH 3.0, 40° C., day 50, monatin ~55 ppm
[24] = pH 3.0, 40° C., day 100, monatin ~55 ppm
[25] = pH 4.0, 40° C., day 3, monatin ~55 ppm
[26] = pH 4.0, 40° C., day 8, monatin ~55 ppm
[27] = pH 4.0, 40° C., day 11, monatin ~55 ppm
[28] = pH 4.0, 40° C., day 17, monatin ~55 ppm
[29] = pH 4.0, 40° C., day 24, monatin ~55 ppm
[30] = pH 4.0, 40° C., day 50, monatin ~55 ppm
[31] = pH 4.0, 40° C., day 100, monatin ~55 ppm

## NC(CC(O)(Cc1c[nH]c2ccccc12)C(=O)O)C(=O)O (stereo not drawn) [Monatin, 2-hydroxy-2-(indol-3-ylmethyl)-4-aminoglutaric acid]
[1]
  degree of degradation of monatin: insignificant
[2]; pH 2.5, 40° C., day 0, monatin ~55 ppm
  SEV Monatin (% sucrose): 7.35 % sucrose
[2]; [5]
  Retention of Monatin Sweetness (%): 93.3%
  SEV Monatin (% sucrose): 6.86 % sucrose
[2]; [6]
  Retention of Monatin Sweetness (%): 91.2%
  SEV Monatin (% sucrose): 6.70 % sucrose
[2]; [7]
  Retention of Monatin Sweetness (%): 88.4%
  SEV Monatin (% sucrose): 6.50 % sucrose
[2]; [8]
  Retention of Monatin Sweetness (%): 85.2%
  SEV Monatin (% sucrose): 6.26 % sucrose
[2]; [9]
  Retention of Monatin Sweetness (%): 82.7%
  SEV Monatin (% sucrose): 6.08 % sucrose
[2]; [10]
  Retention of Monatin Sweetness (%): 81.4%
  SEV Monatin (% sucrose): 5.98 % sucrose
[2]; [11]
  Retention of Monatin Sweetness (%): 80.1%
  SEV Monatin (% sucrose): 5.89 % sucrose
[2]; [12]
  Retention of Monatin Sweetness (%): 78.6%
  SEV Monatin (% sucrose): 5.78 % sucrose
[2]; [13]
  Retention of Monatin Sweetness (%): 62.7%
  SEV Monatin (% sucrose): 4.61 % sucrose
[2]; [14]
  Retention of Monatin Sweetness (%): 28.6%
  SEV Monatin (% sucrose): 2.10 % sucrose
[2]; pH 2.5, 40° C.
  Rate constant (k; day^−1) of sweetness loss: 0.011 day⁻¹
[2]; pH 2.5, 100 days storage at 40° C.
  Sweetness Retained (%): 29%
[2]; pH 3.0, 40° C., day 0, monatin ~55 ppm
  SEV Monatin (% sucrose): 7.08 % sucrose
[2]; [15]
  Retention of Monatin Sweetness (%): 99.6%
  SEV Monatin (% sucrose): 7.05 % sucrose
[2]; [16]
  Retention of Monatin Sweetness (%): 93.2%
  SEV Monatin (% sucrose): 6.60 % sucrose
[2]; [17]
  Retention of Monatin Sweetness (%): 91.4%
  SEV Monatin (% sucrose): 6.47 % sucrose
[2]; [18]
  Retention of Monatin Sweetness (%): 91.6%
  SEV Monatin (% sucrose): 6.49 % sucrose
[2]; [19]
  Retention of Monatin Sweetness (%): 85.3%
  SEV Monatin (% sucrose): 6.04 % sucrose
[2]; [20]
  Retention of Monatin Sweetness (%): 83.8%
  SEV Monatin (% sucrose): 5.93 % sucrose
[2]; [21]
  Retention of Monatin Sweetness (%): 83.1%
  SEV Monatin (% sucrose): 5.88 % sucrose
[2]; [22]
  Retention of Monatin Sweetness (%): 83.1%
  SEV Monatin (% sucrose): 5.88 % sucrose
[2]; [23]
  Retention of Monatin Sweetness (%): 72.3%
  SEV Monatin (% sucrose): 5.12 % sucrose
[2]; [24]
  Retention of Monatin Sweetness (%): 57.9%
  SEV Monatin (% sucrose): 4.10 % sucrose
[2]; pH 3.0, 40° C.
  Rate constant (k; day^−1) of sweetness loss: 0.006 day⁻¹
[2]; pH 3.0, 100 days storage at 40° C.
  Sweetness Retained (%): 58%
[2]; pH 4.0, 40° C., day 0, monatin ~55 ppm
  SEV Monatin (% sucrose): 7.40 % sucrose
[2]; [25]
  Retention of Monatin Sweetness (%): 95.7%
  SEV Monatin (% sucrose): 7.08 % sucrose
[2]; [26]
  Retention of Monatin Sweetness (%): 86.8%
  SEV Monatin (% sucrose): 6.42 % sucrose
[2]; [27]
  Retention of Monatin Sweetness (%): 85.9%
  SEV Monatin (% sucrose): 6.36 % sucrose
[2]; [28]
  Retention of Monatin Sweetness (%): 82.4%
  SEV Monatin (% sucrose): 6.10 % sucrose
[2]; [29]
  Retention of Monatin Sweetness (%): 84.5%
  SEV Monatin (% sucrose): 6.25 % sucrose
[2]; [30]
  Retention of Monatin Sweetness (%): 82.9%
  SEV Monatin (% sucrose): 6.14 % sucrose
[2]; [31]
  Retention of Monatin Sweetness (%): 78.4%
  SEV Monatin (% sucrose): 5.80 % sucrose
[2]; pH 4.0, 40° C.
  Rate constant (k; day^−1) of sweetness loss: 0.003 day⁻¹
[2]; pH 4.0, 100 days storage at 40° C.
  Sweetness Retained (%): 78%
[3]; 50° C., pH 3, 48 hours
  loss in monatin: 23%
[3]; 100° C., pH 3, 24 hours
  loss in monatin: nearly all monatin was lost
[3]; room temperature (25° C.), pH 3, 48 hours
  loss in monatin: 14%
[4]; blend with cyclamates
  quantitative synergy with cyclamates: quantitatively synergistic
[4]; with aspartame, saccharin, acesulfame-K, sucralose, or carbohydrate sweeteners
  quantitative synergy with other sweeteners: no significant quantitative synergy

— patent US20050112260A1, “Monatin tabletop sweetener compositions and methods of making same” (Cargill, Inc., priority 2003, published 2005)
